Reference: PMC4833640 (Journal of Medicinal Chemistry, 2016)

Assay: not given
Conditions: 24 h incubation, aqueous buffer pH 7.4

| Structure (SMILES) | detection after incubation in aqueous buffer (stability) |
| --- | --- |
| Oc1ccccc1SCc1ccccc1 [Compound 34, 2-(Benzylthio)phenol] | not detected after the 24 h incubation in aqueous buffer |

Assay: not given
Conditions: reason why data were considered unreliable

| Structure (SMILES) | PAMPA assay observation on the donor plate |
| --- | --- |
| Oc1c(F)ccc(Cc2ccccc2)c1F [Compound 33, 3-Benzyl-2,6-difluorophenol] | compound precipitation |
| Oc1c(F)cc(Cc2ccccc2)cc1F [Compound 32, 4-Benzyl-2,6-difluorophenol] | high nonspecific binding |

Assay: Colorimetric hydrogen-bond assay with pyrazinone sensor
Format: physicochemical
Conditions: blue-shift of λmax of the sensor, compared with carboxylic acid 1

| Structure (SMILES) | hydrogen-bond (HB) interaction with pyrazinone sensor |
| --- | --- |
| c1ccc(CCc2nnn[nH]2)cc1 [Compound 16, 5-Phenethyl-1H-tetrazole] | significantly stronger HB interactions than the corresponding carboxylic acid |

Assay: physchem
Conditions: measured pKa values

| Structure (SMILES) | pKa |
| --- | --- |
| O=C(CCc1ccccc1)NO [Compound 2, N-(Hydroxy)-3-phenylpropanamide] | > 8 |
| CC(=O)NC(=O)NCc1ccccc1 [Compound 15, N-(Benzylcarbamoyl)acetamide] | > 8 |
| CS(=O)(=O)NCCCc1ccccc1 [Compound 11, N-(3-Phenylpropyl)methanesulfonamide] | > 8 |
| S=c1[nH]c(CCc2ccccc2)no1 [Compound 22, 3-Phenethyl-1,2,4-oxadiazole-5(4H)-thione] | < 4 |
| CC(=O)NOCCc1ccccc1 [Compound 5, N-Phenethoxyacetamide] | > 8 |
| O=c1c(O)c(NCc2ccccc2)c1=O [Compound 31, 3-(Benzylamino)-4-hydroxycyclobut-3-ene-1,2-dione] | < 4 |
| NS(=O)(=O)CCc1ccccc1 [Compound 10, 2-Phenylethane-1-sulfonamide] | > 8 |
| CC(=O)N(O)CCc1ccccc1 [Compound 3, N-Hydroxy-N-phenethylacetamide] | > 8 |
| O=c1c(O)c(Cc2ccccc2)c1=O [Compound 30, 3-Benzyl-4-hydroxycyclobut-3-ene-1,2-dione] | < 4 |
| CONC(=O)CCc1ccccc1 [Compound 4, N-Methoxy-3-phenylpropanamide] | > 8 |
